Assay results: PubChem BioAssay (NCI)
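Briefly, cells in 96-well plates were exposed to five compound concentrations for 48 h, and endpoints were estimated by linear interpolation. TGI is the concentration that stops growth completely.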

Assays:
Test in all cases: NCI-60 cell line screen, 48 h
[1] = test system: KM12 colon
[2] = test system: OVCAR-8 ovarian
[3] = test system: SK-MEL-2 melanoma
[4] = test system: A498 renal
[5] = test system: SR leukemia
[6] = test system: A549 NSCLC
[7] = test system: HCC-2998 colon
[8] = test system: CAKI-1 renal
[9] = test system: MDA-N
[10] = test system: SK-MEL-28 melanoma
[11] = test system: SF-295 CNS
[12] = test system: 786-0 renal
[13] = test system: HOP-62 NSCLC
[14] = test system: UACC-62 melanoma
[15] = test system: UACC-257 melanoma
[16] = test system: CCRF-CEM leukemia
[17] = test system: BT-549 breast
[18] = test system: IGROV1 ovarian
[19] = test system: HCT-15 colon
[20] = test system: OVCAR-4 ovarian
[21] = test system: COLO 205 colon
[22] = test system: HT29 colon
[23] = test system: T-47D breast
[24] = test system: NCI-H460 lung
[25] = test system: HCT-116 colon
[26] = test system: MOLT-4 leukemia
[27] = test system: SK-OV-3 ovarian
[28] = test system: MDA-MB-231 breast
[29] = test system: HL-60(TB) leukemia
[30] = test system: ACHN renal
[31] = test system: SW-620 colon
[32] = test system: HOP-92 NSCLC
[33] = test system: EKVX NSCLC
[34] = test system: OVCAR-5 ovarian
[35] = test system: NCI/ADR-RES ovarian
[36] = test system: SK-MEL-5 melanoma
[37] = test system: SF-268 CNS
[38] = test system: LOX IMVI melanoma
[39] = test system: UO-31 renal
[40] = test system: MDA-MB-435
[41] = test system: SF-539 CNS
[42] = test system: U251 CNS
[43] = test system: HS 578T breast
[44] = test system: SN12C renal
[45] = test system: TK-10 renal
[46] = test system: OVCAR-3 ovarian
[47] = test system: MCF7 breast
[48] = test system: RPMI-8226 leukemia
[49] = test system: M14 melanoma
[50] = test system: PC-3 prostate
[51] = test system: DU-145 prostate
[52] = test system: K-562 leukemia
[53] = test system: SNB-19 CNS
[54] = test system: SNB-75 CNS

In the case of `CN(C)c1ccc(C=C2N=C(c3ccccc3)N(c3cc(C(=O)c4ccccc4)ccc3N3C(=O)/C(=C/c4ccc(N(C)C)cc4)N=C3c3ccccc3)C2=O)cc1`, the TGI [1] is reported as > 100 µM, the TGI [2] is reported as 73.6 µM and the TGI [3] is reported as 21.4 µM. The TGI [4] was > 100 µM, the TGI [5] was > 100 µM and the TGI [6] was > 100 µM. For the same compound, the TGI [7] was 22.7 µM, the TGI [8] was > 100 µM and the TGI [9] was 6.03 µM. The TGI [10] was > 100 µM, the TGI [11] was 27.1 µM and the TGI [12] was > 100 µM. For the same compound, the TGI [13] was > 100 µM, the TGI [14] was > 100 µM and the TGI [15] was > 100 µM. The TGI [16] was > 100 µM, the TGI [17] was > 100 µM and the TGI [18] was > 100 µM. For the same compound, the TGI [19] was > 100 µM, the TGI [20] was > 100 µM and the TGI [21] was 19.4 µM. The TGI [22] was 24.7 µM, the TGI [23] was > 100 µM and the TGI [24] was > 100 µM. The TGI [25] was 95.4 µM, the TGI [26] was 14.9 µM and the TGI [27] was > 100 µM. The TGI [28] was > 100 µM, the TGI [29] was 37.6 µM and the TGI [30] was > 100 µM. The TGI [31] was > 100 µM, the TGI [32] was > 100 µM and the TGI [33] was > 100 µM. For the same compound, the TGI [34] was > 100 µM, the TGI [35] was 85.1 µM and the TGI [36] was > 100 µM. The TGI [37] was > 100 µM, the TGI [38] was > 100 µM and the TGI [39] was > 100 µM. The TGI [40] was 4.42 µM, the TGI [41] was 6.05 µM and the TGI [42] was 29.5 µM. For the same compound, the TGI [43] was > 100 µM, the TGI [44] was > 100 µM and the TGI [45] was > 100 µM. For the same compound, the TGI [46] was 5.57 µM, the TGI [47] was > 100 µM and the TGI [48] was 8.86 µM. The TGI [49] was > 100 µM, the TGI [50] was 28.2 µM and the TGI [51] was > 100 µM. For the same compound, the TGI [52] was > 100 µM, the TGI [53] was > 100 µM and the TGI [54] was 78.9 µM.
